Laboratory results published in paper PMC4286194 (Biochemical Journal, 2015).

Experiments:
[1] = tested on: Bone-marrow-derived macrophages; assay: TLR signalling immunoblots (MAPKs, MSK1/2, CREB, IKKs, TBK1); assay type: cell-based, mouse; details: for Kinetics of activation of MAPKs including ERK1/2 and p38α/β: 3 μM bosutinib or 0.3 μM dasatinib, LPS or Pam3CSK4; for TLR-stimulated phosphorylation of ERK1/2, JNK1/2, p38α/β MAPKs, MSK1/2, IKKα/β, TBK1 and their direct substrates: 3 μM bosutinib, 0.3 μM dasatinib or 0.5 μM HG-9-91-01
Method: RAW264.7 cells were cultured in DMEM containing 10% FBS, 2 mM glutamine and penicillin and streptomycin. […] Cells were treated for 1 h with or without inhibitors and then stimulated for up to 24 h with either 1 μg/ml Pam3CSK4 or 100 ng/ml LPS.
Cells were extracted in lysis buffer [50 mM Tris/HCl, pH 7.4, 1 mM EDTA, 1 mM EGTA, 50 mM NaF, 5 mM sodium pyrophosphate, 10 mM sodium β-glycerol 1-phosphate, 1 mM DTT, 1 mM sodium orthovanadate, 0.27 M sucrose, 1% (v/v) Triton X-100, 1 μg/ml aprotinin, 1 μg/ml leupeptin and 1 mM PMSF]. Cell extracts were clarified by centrifugation and protein concentrations were determined using the Bradford assay. To immunoprecipitate endogenous CRTC3, 1 mg of cell extract was incubated with 5 μg of anti-CRTC3 [13] covalently cross-linked on to Protein G–Sepharose. Immune complexes were washed three times with lysis buffer, eluted in 1% SDS and separated by SDS/PAGE. To detect proteins in cell lysates, 20 μg of protein extract was separated by SDS/PAGE. After transfer to PVDF membranes, proteins were detected by immunoblotting and visualized by treating the blots with ECL (GE Healthcare) followed by autoradiography.

ERK5 = ERK5 (Homo sapiens, UniProt Q13164); assay: Kinase profiling; assay type: biochemical
HER4 = HER4 (Homo sapiens, UniProt Q15303); assay: Kinase profiling; assay type: biochemical
IRR = IRR (Homo sapiens, UniProt P14616); assay: Kinase profiling; assay type: biochemical
LKB1 = molecular target: T1, LKB1 (Homo sapiens, UniProt Q15831); assay: Kinase profiling; assay type: biochemical
T1 sequence (Q15831 1-433): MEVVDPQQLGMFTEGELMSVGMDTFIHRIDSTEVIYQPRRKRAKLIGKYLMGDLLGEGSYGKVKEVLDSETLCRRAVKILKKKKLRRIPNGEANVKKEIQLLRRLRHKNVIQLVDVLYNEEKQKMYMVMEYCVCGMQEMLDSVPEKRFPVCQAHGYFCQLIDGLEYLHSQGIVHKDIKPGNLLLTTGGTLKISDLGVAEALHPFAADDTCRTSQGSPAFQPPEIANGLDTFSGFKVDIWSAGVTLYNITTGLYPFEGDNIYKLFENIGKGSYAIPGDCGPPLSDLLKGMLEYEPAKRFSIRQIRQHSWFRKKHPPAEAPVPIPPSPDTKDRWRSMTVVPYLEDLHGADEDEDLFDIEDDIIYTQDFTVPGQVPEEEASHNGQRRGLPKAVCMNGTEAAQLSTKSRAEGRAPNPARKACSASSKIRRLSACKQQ
T1 sequence (Q7RTN6 1-431 partner): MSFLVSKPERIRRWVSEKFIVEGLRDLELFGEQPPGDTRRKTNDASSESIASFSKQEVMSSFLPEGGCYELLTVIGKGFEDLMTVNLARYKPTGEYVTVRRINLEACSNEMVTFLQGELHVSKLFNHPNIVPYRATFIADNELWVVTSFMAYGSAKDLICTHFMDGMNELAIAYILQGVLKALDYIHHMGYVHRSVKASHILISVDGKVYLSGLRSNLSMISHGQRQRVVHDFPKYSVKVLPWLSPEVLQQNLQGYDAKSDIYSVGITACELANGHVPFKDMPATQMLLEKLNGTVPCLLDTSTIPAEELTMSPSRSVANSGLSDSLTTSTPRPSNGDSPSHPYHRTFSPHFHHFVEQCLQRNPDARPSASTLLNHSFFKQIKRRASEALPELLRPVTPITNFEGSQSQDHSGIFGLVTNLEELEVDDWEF
T1 sequence (Q9Y376 1-341 partner): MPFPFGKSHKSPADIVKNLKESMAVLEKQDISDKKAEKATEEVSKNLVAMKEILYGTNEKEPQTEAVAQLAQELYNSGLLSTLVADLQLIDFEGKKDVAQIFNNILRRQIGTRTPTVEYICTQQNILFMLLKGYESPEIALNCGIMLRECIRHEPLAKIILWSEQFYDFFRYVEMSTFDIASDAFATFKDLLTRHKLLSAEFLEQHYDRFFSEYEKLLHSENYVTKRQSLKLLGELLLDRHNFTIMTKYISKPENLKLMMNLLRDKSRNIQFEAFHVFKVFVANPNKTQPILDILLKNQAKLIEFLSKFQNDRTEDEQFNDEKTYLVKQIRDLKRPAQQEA

p38 beta MAPK = p38 beta MAPK (Homo sapiens, UniProt Q15759); assay: Kinase profiling; assay type: biochemical
PINK = molecular target: T2, PINK (Tribolium castaneum, UniProt D6WMX4); assay: Kinase profiling; assay type: biochemical
T2 sequence (D6WMX4 1-570): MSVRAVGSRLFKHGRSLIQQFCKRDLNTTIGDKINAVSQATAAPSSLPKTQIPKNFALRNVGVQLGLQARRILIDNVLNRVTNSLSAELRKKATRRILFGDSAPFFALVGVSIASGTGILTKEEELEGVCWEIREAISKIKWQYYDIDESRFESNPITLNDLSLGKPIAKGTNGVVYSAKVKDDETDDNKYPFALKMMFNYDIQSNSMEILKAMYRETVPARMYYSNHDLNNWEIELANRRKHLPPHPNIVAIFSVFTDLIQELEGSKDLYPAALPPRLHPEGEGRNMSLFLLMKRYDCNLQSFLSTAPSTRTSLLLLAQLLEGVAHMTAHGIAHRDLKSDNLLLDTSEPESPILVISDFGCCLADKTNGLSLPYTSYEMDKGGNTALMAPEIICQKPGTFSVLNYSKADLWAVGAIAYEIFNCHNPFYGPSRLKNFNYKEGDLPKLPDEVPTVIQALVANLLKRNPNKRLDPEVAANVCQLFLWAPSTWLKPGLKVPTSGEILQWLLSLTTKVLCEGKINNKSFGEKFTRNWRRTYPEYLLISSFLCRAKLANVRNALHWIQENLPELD

PKC alpha = PKC alpha (Homo sapiens, UniProt P17252); assay: Kinase profiling; assay type: biochemical
S6K1 = S6K1 (Homo sapiens, UniProt P23443); assay: Kinase profiling; assay type: biochemical
ZAP70 = molecular target: T3, ZAP70 (Homo sapiens, UniProt P43403); assay: Kinase profiling; assay type: biochemical
T3 sequence (P43403 1-619): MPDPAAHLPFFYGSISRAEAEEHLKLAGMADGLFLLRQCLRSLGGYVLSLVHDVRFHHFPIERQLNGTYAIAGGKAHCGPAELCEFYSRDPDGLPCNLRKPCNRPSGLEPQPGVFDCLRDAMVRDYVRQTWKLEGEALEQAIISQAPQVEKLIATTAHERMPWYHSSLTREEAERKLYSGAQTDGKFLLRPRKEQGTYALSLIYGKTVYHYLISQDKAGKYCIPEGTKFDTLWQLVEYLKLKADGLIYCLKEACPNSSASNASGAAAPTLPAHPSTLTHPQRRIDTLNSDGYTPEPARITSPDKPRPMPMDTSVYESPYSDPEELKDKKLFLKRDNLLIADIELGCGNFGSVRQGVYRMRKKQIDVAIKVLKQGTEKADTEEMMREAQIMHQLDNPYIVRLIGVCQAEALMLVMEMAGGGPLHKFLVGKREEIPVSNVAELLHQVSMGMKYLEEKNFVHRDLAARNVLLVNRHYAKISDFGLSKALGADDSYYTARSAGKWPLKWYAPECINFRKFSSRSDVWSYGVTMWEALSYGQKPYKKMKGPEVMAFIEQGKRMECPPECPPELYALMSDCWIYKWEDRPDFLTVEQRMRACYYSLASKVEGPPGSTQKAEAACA

Chain of HER4 (Q15303 26-1308): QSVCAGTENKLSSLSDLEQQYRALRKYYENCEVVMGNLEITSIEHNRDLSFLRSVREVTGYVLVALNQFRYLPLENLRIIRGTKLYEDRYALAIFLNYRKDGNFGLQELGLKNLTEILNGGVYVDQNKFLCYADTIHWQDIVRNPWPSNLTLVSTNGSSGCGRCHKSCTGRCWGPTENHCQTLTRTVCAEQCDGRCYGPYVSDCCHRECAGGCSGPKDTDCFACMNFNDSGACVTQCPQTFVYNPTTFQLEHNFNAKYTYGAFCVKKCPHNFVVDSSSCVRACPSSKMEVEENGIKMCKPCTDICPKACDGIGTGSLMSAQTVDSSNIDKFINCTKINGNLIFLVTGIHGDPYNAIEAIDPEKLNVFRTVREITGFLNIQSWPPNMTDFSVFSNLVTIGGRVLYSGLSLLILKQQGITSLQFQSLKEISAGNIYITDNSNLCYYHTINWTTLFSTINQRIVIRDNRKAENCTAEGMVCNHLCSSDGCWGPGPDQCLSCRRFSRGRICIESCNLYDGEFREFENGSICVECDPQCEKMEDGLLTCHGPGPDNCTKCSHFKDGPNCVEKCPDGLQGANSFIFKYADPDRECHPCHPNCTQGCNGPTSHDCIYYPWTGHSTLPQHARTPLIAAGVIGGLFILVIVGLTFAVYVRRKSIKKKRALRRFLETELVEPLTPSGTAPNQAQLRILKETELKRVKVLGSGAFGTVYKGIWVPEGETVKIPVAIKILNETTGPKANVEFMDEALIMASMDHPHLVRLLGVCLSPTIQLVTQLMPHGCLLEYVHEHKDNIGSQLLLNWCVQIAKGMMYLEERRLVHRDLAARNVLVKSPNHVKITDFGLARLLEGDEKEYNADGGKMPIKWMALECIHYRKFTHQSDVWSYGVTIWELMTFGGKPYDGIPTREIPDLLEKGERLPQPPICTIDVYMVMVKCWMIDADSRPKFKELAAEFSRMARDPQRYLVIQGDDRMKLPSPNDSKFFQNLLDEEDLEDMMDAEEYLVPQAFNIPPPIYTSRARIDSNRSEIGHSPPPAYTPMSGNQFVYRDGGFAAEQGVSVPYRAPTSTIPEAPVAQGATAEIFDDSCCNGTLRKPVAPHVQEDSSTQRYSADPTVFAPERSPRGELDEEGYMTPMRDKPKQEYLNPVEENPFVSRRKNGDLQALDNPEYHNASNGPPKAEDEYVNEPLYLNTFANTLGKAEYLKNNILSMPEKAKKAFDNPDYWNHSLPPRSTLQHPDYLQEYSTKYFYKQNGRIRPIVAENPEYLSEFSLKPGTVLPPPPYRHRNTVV
Chain of ERK5 (Q13164 whole entry): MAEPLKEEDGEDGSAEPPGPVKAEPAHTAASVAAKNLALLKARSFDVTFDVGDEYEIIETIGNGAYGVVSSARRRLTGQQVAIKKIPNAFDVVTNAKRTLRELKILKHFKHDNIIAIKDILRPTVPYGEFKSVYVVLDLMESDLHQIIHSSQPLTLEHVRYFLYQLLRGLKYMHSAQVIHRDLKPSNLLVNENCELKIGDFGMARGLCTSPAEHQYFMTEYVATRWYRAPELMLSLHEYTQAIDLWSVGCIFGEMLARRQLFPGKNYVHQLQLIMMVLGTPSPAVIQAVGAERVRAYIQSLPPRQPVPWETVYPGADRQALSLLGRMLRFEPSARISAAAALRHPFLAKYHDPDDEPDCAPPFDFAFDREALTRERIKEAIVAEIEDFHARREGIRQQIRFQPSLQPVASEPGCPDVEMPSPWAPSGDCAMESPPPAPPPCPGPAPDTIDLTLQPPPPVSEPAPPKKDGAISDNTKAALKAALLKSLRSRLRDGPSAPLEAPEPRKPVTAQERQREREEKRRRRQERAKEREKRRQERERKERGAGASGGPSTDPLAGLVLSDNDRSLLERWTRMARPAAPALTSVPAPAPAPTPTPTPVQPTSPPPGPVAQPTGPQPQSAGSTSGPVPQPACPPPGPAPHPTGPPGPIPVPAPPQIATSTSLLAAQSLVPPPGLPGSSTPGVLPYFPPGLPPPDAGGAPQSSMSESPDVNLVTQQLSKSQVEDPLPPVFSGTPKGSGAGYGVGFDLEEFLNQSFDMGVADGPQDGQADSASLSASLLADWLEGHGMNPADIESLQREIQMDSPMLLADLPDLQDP
Chain of IRR (P14616 27-1297): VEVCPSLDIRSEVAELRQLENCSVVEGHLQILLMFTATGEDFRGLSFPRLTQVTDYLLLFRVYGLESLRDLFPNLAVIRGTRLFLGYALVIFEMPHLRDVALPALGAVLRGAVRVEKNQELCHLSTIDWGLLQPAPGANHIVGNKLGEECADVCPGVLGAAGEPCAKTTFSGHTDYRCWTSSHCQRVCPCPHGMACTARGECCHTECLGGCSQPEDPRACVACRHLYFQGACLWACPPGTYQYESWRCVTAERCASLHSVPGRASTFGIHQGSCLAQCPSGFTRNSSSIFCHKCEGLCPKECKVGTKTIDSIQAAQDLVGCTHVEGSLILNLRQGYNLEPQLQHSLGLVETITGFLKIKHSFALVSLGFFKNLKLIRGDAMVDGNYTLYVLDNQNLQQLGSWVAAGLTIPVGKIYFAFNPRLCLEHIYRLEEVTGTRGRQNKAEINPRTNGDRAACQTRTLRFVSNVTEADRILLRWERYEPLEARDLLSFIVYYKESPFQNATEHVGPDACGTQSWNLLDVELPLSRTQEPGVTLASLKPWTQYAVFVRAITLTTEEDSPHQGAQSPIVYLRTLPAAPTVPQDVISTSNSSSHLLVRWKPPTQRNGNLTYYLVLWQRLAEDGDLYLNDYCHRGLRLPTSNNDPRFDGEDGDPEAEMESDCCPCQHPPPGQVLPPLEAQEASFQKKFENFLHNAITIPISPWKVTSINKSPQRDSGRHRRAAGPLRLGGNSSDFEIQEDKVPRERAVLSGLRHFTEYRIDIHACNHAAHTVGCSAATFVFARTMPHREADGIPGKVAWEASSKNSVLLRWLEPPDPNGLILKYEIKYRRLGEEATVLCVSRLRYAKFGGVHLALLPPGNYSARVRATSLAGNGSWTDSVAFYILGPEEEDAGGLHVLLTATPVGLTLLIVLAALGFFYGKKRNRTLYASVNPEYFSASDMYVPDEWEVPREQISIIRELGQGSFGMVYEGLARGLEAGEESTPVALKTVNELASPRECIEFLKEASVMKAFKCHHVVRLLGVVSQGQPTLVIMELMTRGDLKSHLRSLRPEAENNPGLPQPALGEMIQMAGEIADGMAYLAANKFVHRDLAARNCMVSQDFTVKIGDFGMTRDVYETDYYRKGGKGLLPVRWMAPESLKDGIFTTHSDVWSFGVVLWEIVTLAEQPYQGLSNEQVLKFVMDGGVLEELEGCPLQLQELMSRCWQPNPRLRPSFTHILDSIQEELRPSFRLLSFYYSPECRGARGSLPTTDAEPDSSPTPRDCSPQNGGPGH
Chain of S6K1 (P23443 whole entry): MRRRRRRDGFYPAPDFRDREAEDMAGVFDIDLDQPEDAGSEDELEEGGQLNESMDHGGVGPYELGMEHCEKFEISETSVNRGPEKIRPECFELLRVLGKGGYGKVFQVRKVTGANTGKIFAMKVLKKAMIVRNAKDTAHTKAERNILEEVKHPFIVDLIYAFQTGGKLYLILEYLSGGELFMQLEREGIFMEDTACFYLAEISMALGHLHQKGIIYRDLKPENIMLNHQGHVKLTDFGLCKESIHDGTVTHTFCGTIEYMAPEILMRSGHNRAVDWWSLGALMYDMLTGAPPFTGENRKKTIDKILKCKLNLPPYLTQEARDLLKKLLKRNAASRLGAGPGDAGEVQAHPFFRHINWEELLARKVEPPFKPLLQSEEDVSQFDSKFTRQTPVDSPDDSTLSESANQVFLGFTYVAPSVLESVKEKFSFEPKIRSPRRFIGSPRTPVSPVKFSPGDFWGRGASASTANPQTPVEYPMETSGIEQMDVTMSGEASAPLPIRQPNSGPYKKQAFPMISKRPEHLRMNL
Chain of p38 beta MAPK (Q15759 whole entry): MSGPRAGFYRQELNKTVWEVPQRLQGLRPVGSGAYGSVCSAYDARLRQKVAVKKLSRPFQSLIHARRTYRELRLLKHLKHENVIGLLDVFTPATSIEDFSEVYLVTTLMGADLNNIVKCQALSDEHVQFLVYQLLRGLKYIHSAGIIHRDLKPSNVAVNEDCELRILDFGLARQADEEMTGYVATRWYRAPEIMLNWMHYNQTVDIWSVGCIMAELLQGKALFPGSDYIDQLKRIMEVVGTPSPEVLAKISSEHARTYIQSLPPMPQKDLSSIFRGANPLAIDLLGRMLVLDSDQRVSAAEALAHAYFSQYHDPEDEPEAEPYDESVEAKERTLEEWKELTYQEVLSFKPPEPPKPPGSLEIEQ

| Structure (SMILES) | Kinetics of activation of MAPKs including ERK1/2 and p38α/β [1] | TLR-stimulated phosphorylation of ERK1/2, JNK1/2, p38α/β MAPKs, MSK1/2, IKKα/β, TBK1 and their direct substrates [1] | remaining activity at 0.1 µM (ERK5) | remaining activity at 1 µM (ERK5) | remaining activity at 0.1 µM (HER4) | remaining activity at 1 µM (HER4) | remaining activity at 0.1 µM (IRR) | remaining activity at 1 µM (IRR) | remaining activity at 0.1 µM (LKB1) | remaining activity at 1 µM (LKB1) | remaining activity at 0.1 µM (p38 beta MAPK) | remaining activity at 1 µM (p38 beta MAPK) | remaining activity at 0.1 µM (PINK) | remaining activity at 1 µM (PINK) | remaining activity at 0.1 µM (PKC alpha) | remaining activity at 1 µM (PKC alpha) | remaining activity at 0.1 µM (S6K1) | remaining activity at 1 µM (S6K1) | remaining activity at 0.1 µM (ZAP70) | remaining activity at 1 µM (ZAP70) |
| --- | --- | --- | --- | --- | --- | --- | --- | --- | --- | --- | --- | --- | --- | --- | --- | --- | --- | --- | --- | --- |
| COc1cc(Nc2c(C#N)cnc3cc(OCCCN4CCN(C)CC4)c(OC)cc23)c(Cl)cc1Cl [Bosutinib, bosutinib] | no effect | occurred normally | 74 ± 6% | 67 ± 10% | 9% | 1 ± 1% | 72 ± 5% | 59 ± 1% | 84 ± 13% | 104 ± 15% | 94 ± 15% | 108 ± 24% | 112 ± 9% | 125 ± 13% | 96 ± 5% | 103 ± 3% | 98 ± 1% | 86 ± 2% | 99 ± 4% | 109 ± 18% |
| Cc1nc(Nc2ncc(C(=O)Nc3c(C)cccc3Cl)s2)cc(N2CCN(CCO)CC2)n1 [Dasatinib] | no effect | occurred normally | 87 ± 2% | 91 ± 4% | 27 ± 1% | 6% | 89 ± 4% | 90 ± 14% | 96 ± 18% | 100 ± 14% | 105 ± 11% | 44 ± 4% | 117 ± 1% | 133 ± 5% | 98 ± 3% | 105 ± 14% | 108 ± 3% | 113 ± 11% | 109 ± 1% | 121 ± 27% |
